The values below come from paper PMC12540922, “Selective Antimicrobial and Cytotoxic Effects of Hop Compounds to Combat Poultry Antimicrobial Resistance” (MicrobiologyOpen, 2025).

Molecules are shown by their SMILES. ≈ marks a conversion by molar mass, not a printed value. Entries after “also recorded” stand apart in the source; their conditions may differ. Structures can show the parent of a compound that is named as a salt.

One data set has as its system M. luteus. The arrangement: method as in Seniya et al. [2012]. The conditions noted are these: against M. luteus; ref Seniya et al. [2012]; cited from earlier work.
In data set [1] the test system is Micrococcus luteus (DSM 1605). As to the kind of experiment: Broth dilution assay, antibacterial activity. It counts as cell-based. The note with it: for MIC50: Micrococcus luteus, DSM1605, M. luteus, concentration inhibiting 50% of growth rate, NB medium, 37°C, 24 h, mean ± SD. Here is the method:
Micrococcus luteus (DSM 1605) was obtained from DSMZ (German Collection of Microorganisms and Cell Cultures GmbH). It was cultured on nutrient agar or in nutrient broth (NB, DSMZ #1) containing 5 g L^−1 peptone from casein (Carl Roth, Karlsruhe, Germany) and 3 g L^−1 meat extract (Carl Roth, Karlsruhe, Germany) under aerobic conditions at 37°C.
(§1) Antibacterial activity of hop compounds against Gram‐positive M. luteus and B. subtilis was analyzed using Broth Dilution Assay. Twofold dilutions of hop compounds were prepared in NB or TSB medium, ranging from theoretical concentrations of 500 to 0.5 µg mL^−1 and transferred to 48‐well microtiter plates (Sarstedt, Nuembrecht, Germany). Gentamicin sulfate was used as a positive control. The optical density (OD) of a preculture prepared on the previous day was measured at 600 nm in a spectrophotometer (Implen, Muenchen, Germany). The inoculum was then diluted with NB or TSB medium to the desired OD600 nm of 0.1 and transferred to all wells (150 µL) except the sterile control, which consists only of medium. The ODs of the cultures were measured every hour at 750 nm using a plate reader (Tecan, Maennedorf, Switzerland) for 24 h. In the meantime, the plates were incubated at 37°C or 28°C without shaking. The chosen wavelength of 750 nm resulted from previous experiments with hop extracts to avoid an overlap of the absorption spectrum with chlorophyll (Guidi et al. [2017]). The growth rates were obtained from the exponential range of the generated growth curves. All values were normalized to the growth control (without hop compounds). MIC50 (minimum concentration of a substance that inhibits the growth of 50% of the bacteria tested) values were calculated by nonlinear regression using GraphPad Prism model “log(inhibitor) versus response,” where the basal response was subtracted and the bottom was set to a constant value (0). Means and standard deviations (SDs) were calculated from two biological duplicates, each consisting of three technical replicates.

Data set [2] relates to Bacillus subtilis (DSM 23778). As to the kind of experiment: Broth dilution assay, antibacterial activity. In kind it is cell-based. The conditions noted are these: for MIC50: Bacillus subtilis, DSM23778, B. subtilis, concentration inhibiting 50% of growth rate, TSB medium, 28°C, 24 h, mean ± SD; for Selectivity index (SI), quotient of IC50 and MIC50: IC50 UMNSAH/DF-1 / MIC50 B. subtilis. Here is the method:
Bacillus subtilis (DSM 23778) was obtained from DSMZ (German Collection of Microorganisms and Cell Cultures GmbH). It was cultured on tryptic soy broth (TSB, DSMZ #545) agar plates or in TSB containing 17 g L^−1 peptone from casein, 3 g L^−1 peptone from soy, 2.5 g L^−1 D‐(+)‐glucose, 5 g L^−1 NaCl, and 2.5 g L^−1 K2HPO4 (Carl Roth, Karlsruhe, Germany) under aerobic conditions at 28°C.
as §1
(In general: In broth dilution the organism is exposed to a series of concentrations in liquid medium.)

Data set [3] can be described thus: MTT based cell viability assay (cytotoxic activity). The note with it: chicken, UMNSAH/DF-1 chicken fibroblast cells, UMNSAH/DF-1, 48 h treatment, mean ± SD. Here is the method: UMNSAH/DF‐1 cell line was purchased from Cytion (Eppelheim, Germany). The cells were maintained in Dulbecco's Modified Eagle Medium (DMEM, Sigma‐Aldrich, St. Louis, USA) containing 10% heat‐inactivated fetal bovine serum (FBS, Sigma‐Aldrich, St. Louis, USA) and cultured at 37°C and 5% CO2 in a humidified atmosphere. Cell lines were serially passaged after being detached with Accutase solution (Sigma‐Aldrich, St. Louis, USA).
The hop compounds were investigated for their cytotoxic effect on the chicken cell line UMNSAH/DF‐1, using the 3‐(4,5‐dimehtylthiazol‐2‐yl)‐2,5‐diphenyltetrazolium bromide (MTT) based cell viability assay. Cells were seeded in 96‐well microtiter plates (Sarstedt, Nümbrecht, Germany) with a cell density of 0.05 × 10^6 cells per mL and 100 µL per well and incubated for 24 h (37°C, 5% CO2). After that the medium was discarded and a dilution series of hop compounds in DMEM was added to the wells (100 µL), ranging from theoretical concentrations of 200 µg mL^−1 to 20 ng mL^−1. For vitality control, 20% dimethyl sulfoxide (DMSO) (TH Geyer, Renningen, Germany) was added, and for growth control, culture medium was added. The cytotoxic measurements were also performed with gentamicin sulfate as a control. Treated cells were further incubated for 48 h (37°C, 5% CO2). […] Means and SDs were calculated from two biological duplicates, each consisting of three technical replicates.

Data set [4] can be described thus: Solubility of hop compounds in aqueous media (HPLC of supernatant). It counts as physicochemical. The note with it: 10% (v/v) ethanol; for solubility: culture media DMEM, NB and TSB, aqueous with cosolvent or surfactant or cyclodextrin, kinetic from dmso stock, in the media selected (DMEM, NB, TSB), read-out: Solubility limit; for Solubility in aqueous medium (in words): DMEM with/without 10% FBS, NB, TSB, theoretical 1 mg mL^−1. Here is the method:
High‐performance liquid chromatography (HPLC) measurements were performed using an NUCLEODUR C18 Gravity‐SB (3 µm, 250 × 2 mm) column equipped with a precolumn (Machery Nagel, Düren, Germany) in a Shimadzu HPLC system (Kyoto, Japan). The flow rate was set to 0.6 mL min^−1 at 40°C using 80% methanol/20% phosphoric acid (0.5% [v/v] in H2O) as mobile phase. Media samples were 10‐fold diluted in the mobile phase, incubated for 10 min at 40°C and centrifuged at 10,000g for 10 min. 10 μL of filtered (polytetrafluoroethylene, 0.2 µm) samples was injected for analysis. Identification and quantification of isoxanthohumol, xanthohumol, co‐/n‐/adhumulone, co‐/n‐/adlupulone, and co‐/n‐/adisohumulone by a UV‐Detector (314 nm for 0–24 min, and 270 nm for 24.01–45 min) were performed by corresponding standard curves. The preparation of hop compound solutions was carried out analogously for all three media NB, TSB, and DMEM for use in bacterial and avian cell culture. Hop compounds were provided by Hopsteiner (Mainburg, Germany) in the following purities: isoxanthohumol (81.0%), xanthohumol (90.0%), humulone (88.5%), lupulone (74.3%), and isohumulone (91.0%). The hop compounds were dissolved in ethanol to 10 mg mL^−1. From this stock solution, 1:10 dilutions were prepared in the respective medium, resulting in precipitation due to their hydrophobic character. After centrifugation (10,000g, 10 min), the clear supernatant was transferred to a new tube and used for further experiments. […] This is why the actual concentration of the compounds in the aqueous medium was analyzed using HPLC and used for subsequent calculations. Due to the hydrophobic character of hop pure compounds, a complete dissolution in an aqueous medium cannot be assumed. […] To assess the influence of FBS on solubility, DMEM without serum was also tested. For humulone, lupulone, and isohumulone, the three derivatives (co‐/n‐/ad‐) are considered together in this figure and also in the following.

For data set [5], the system named is human prostate (PC3) and colon (HT29) cancer cell lines. The arrangement: method as in Farag and Wessjohann [2013]. The note with it: ref Farag and Wessjohann [2013]; cited from earlier work.
Data set [6] deals with MCF-7 breast cancer cell line. The arrangement: method as in Miranda et al. [1999]. The note with it: ref Miranda et al. [1999], cited from earlier work.
Data set [7] has as its system A-2780 ovarian cancer cell line. The arrangement: method as in Miranda et al. [1999]. The note with it: ref Miranda et al. [1999], cited from earlier work.
Data set [8] has as its system normal murine hepatocytes (AML 12 cell line). The arrangement: method as in Ho et al. [2008]. The conditions noted are these: ref Ho et al. [2008]; cited from earlier work.
In data set [9] the test system is normal human fibroblasts (BJ cells). Details: method as in Klimek et al. ([2021]). The note with it: ref Klimek et al. ([2021]); cited from earlier work.
The mark [10] stands for this setting: read-out: IC50 (antiproliferative effect).

Usually MIC90 stands for the lowest concentration that inhibits either 90% of growth or 90% of the strains tested, depending on the study. Regarding `[H]/N=C(/N)N[C@H]1[C@H](O)[C@@H](O)[C@H](O[C@@H]2O[C@@H](C)[C@](O)(C=O)[C@H]2O[C@@H]2O[C@@H](CO)[C@H](O)[C@@H](O)[C@@H]2NC)[C@@H](N/C(N)=N\[H])[C@@H]1O` [streptomycin], in the data set on M. luteus, the MIC90 was 500 mg/L (≈ 860 µM).

What is called MIC50 is an inhibitory concentration at the 50% level, which refers to growth in some studies and to a panel of isolates in others. A higher MIC50 goes with lower susceptibility. The term IC50 denotes the concentration that inhibits the measured activity by half. What is called solubility is the concentration that dissolves in the medium under given conditions. In the case of `CC(C)=CCC1=C(O)C(C(=O)CC(C)C)=C(O)C(CC=C(C)C)(CC=C(C)C)C1=O` [lupulone], the MIC50 in [1] was found to be 1.5 ± 0.48 mg/L (≈ 3.62 µM); in data set [2] it was 0.1 ± 0.0029 mg/L (≈ 0.241 µM). In [3], this molecule returned an IC50 at 48 h of 1.5 ± 0.034 mg/L (≈ 3.62 µM). In addition, in data set [4], the solubility is about 1 mg/mL (≈ 2410 µM). Moreover, the concentration for half-maximal inhibition (IC50) in data set [5] is 2.4 to 8.1 mg/L.

Take `CC(C)=CCC1C(=O)C(C(=O)CC(C)C)=C(O)C(O)(CC=C(C)C)C1=O` (stereo not drawn) [humulone]: in [2], the “Selectivity index (SI), quotient of IC50 and MIC50” value is “around 6”. Also, in data set [4], the “Solubility in aqueous medium (in words)” value is recorded as “highest” and the solubility was about 1 mg/mL (≈ 2760 µM). Besides, the IC50 in [5] is 13.2 to 15.5 mg/L.

Take `CNC(C)C1CCC(N)C(OC2C(N)CC(N)C(OC3OCC(C)(O)C(NC)C3O)C2O)O1` (stereo not drawn) [gentamicin sulfate, reference compound]: the MIC50 was 0.26 ± 0.08 mg/L in data set [1] and 0.73 ± 0.2 mg/L in data set [2]. For the same molecule, the IC50 at 48 h in data set [3] came out at 1440 ± 390 mg/L.

On to `CO/N=C(\C(=O)N[C@@H]1C(=O)N2C(C(=O)O)=C(CSc3nc(=O)c(=O)[nH]n3C)CS[C@H]12)c1csc(N)n1` [ceftriaxone], for which the MIC90 in the data set on M. luteus was 500 mg/L (≈ 902 µM).

As to `CC1(C)S[C@@H]2[C@H](NC(=O)[C@H](N)c3ccccc3)C(=O)N2[C@H]1C(=O)O` [ampicillin], in the data set with M. luteus, the MIC90 was 2500 mg/L (≈ 7150 µM).

Turning to `COc1cc(O)c(CC=C(C)C)c2c1C(=O)CC(c1ccc(O)cc1)O2` (stereo not drawn) [isoxanthohumol], the “Solubility in aqueous medium (in words)” value in data set [4] is “minimal; also recorded: moderately dissolved; also recorded: limited solubility”. For the same molecule, in data set [6], the “Effect compared with xanthohumol (in words)” value is “comparable effect”. For the same molecule, in data set [7], the “Times less effective than xanthohumol” value was 35 times.

With `COc1cc(O)c(CC=C(C)C)c(O)c1C(=O)/C=C/c1ccc(O)cc1` [xanthohumol], the “Selectivity index (SI), quotient of IC50 and MIC50” value in data set [1] (IC50 UMNSAH/DF-1 / MIC50 M. luteus) is recorded as 5.5 ± 0.36; in data set [2] it was “around 6”. Moreover, in data set [1], the MIC50 was found to be 0.95 ± 0.04 mg/L (≈ 2.68 µM). For the same molecule, the “Solubility in aqueous medium (in words)” value is reported as “minimal; also recorded: only a small proportion of xanthohumol could be recovered” in data set [4] and “limited solubility” in data set [4] (listed as Xanthohumol). Further, the IC50 was 13.3 µM in data set [6] (setting [10]), 0.52 µM in data set [7] (setting [10]), 211 µM in data set [8] and 26.56 mg/L (≈ 74.9 µM) in [9].
